The record followed here is publication PMC9743095 (Journal of Medicinal Chemistry, 2022).

Like-named read-outs stand apart in the source and are kept apart here. A value given as a limit tells only on which side of the number the result lay.

In general, half-life refers to the time in which the quantity being followed falls by half.

One data set deals with Jurkat. As to the kind of experiment: cells. The class given is cell-based. As to conditions: for CC50: Homo sapiens, 72 h, read-out: LC50; for CC50 / MI%: Jurkat; for MI%: maximum inhibitory effect over concentration range. An outline of the steps:
(§1)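 Antiproliferative effect: 72 h treatment, MTS colorimetric endpoint (4 h at 37 °C). Dose range topped at 198 μM, 3.16-fold titration.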

In another data set the test system is K562. As to the kind of experiment: cells. It counts as cell-based. As to conditions: Homo sapiens; for Emax: read-out: MI%; for CC50: read-out: LC50. In a few lines: as §1
The subject of the next data set is MIA PaCa-2. As to the kind of experiment: cells. The class given is cell-based. The following applies: for CC50: Homo sapiens, MIA PaCa-2, 72 h, read-out: LC50; for MI%: MIA PaCa-2, maximum inhibitory effect over concentration range. An outline of the steps: as §1
Another data set relates to NCI-H929. As to the kind of experiment: cells. The class given is cell-based. The following applies: for CC50: Homo sapiens, NCI-H929, 72 h, read-out: LC50; for MI%: NCI-H929, maximum inhibitory effect over concentration range. In a few lines: as §1
Data set [1] deals with KG1a leukemic stem cells (Lin–/CD34+/CD38–/CD123+). As to the kind of experiment: Leukemic stem cell targeting in KG1a cultures (flow cytometry). It counts as cell-based, human. The following applies: 72 h, LSC vs bulk tumor. As to the method:
The acute myeloid leukemia (AML) KG1a cell line was maintained in RPMI medium (Invitrogen, Paisley, U.K.) supplemented with 100 units/mL penicillin, 100 μg/mL streptomycin, and 20% FBS. […] In addition, control cultures were carried out to which no drug was added. The cells were subsequently harvested by centrifugation and were analyzed by flow cytometry using the Annexin V assay. All experiments were performed in triplicate. LC50 values (the concentration of compound required to kill 50% of the cells in culture) were calculated by nonlinear regression modeling using GraphPad Prism software and are shown as mean ± standard error of the mean (SEM) for each replicate data set.
Cells were then harvested, and KG1a cells were labeled with anti-CD34 (FITC), anti-CD38 (PE), and anti-CD123 (PERCP cy5). The subpopulation expressing a leukemic stem cell (LSC) phenotype was subsequently identified and was expressed as a percentage of all viable cells left in the culture. The percentages of stem cells remaining were then plotted on a dose–response graph, and the effects of the ProTides were compared with the parental nucleoside to determine if they preferentially target cancer stem cells
(In general: A flow cytometer gives signals particle by particle.)

Data set [2] has as its target T1, adenosine deaminase (ADA) (Bos taurus, UniProt P56658).
T1 construct: purchased Sigma-Aldrich 59722
T1 sequence (P56658 1-363): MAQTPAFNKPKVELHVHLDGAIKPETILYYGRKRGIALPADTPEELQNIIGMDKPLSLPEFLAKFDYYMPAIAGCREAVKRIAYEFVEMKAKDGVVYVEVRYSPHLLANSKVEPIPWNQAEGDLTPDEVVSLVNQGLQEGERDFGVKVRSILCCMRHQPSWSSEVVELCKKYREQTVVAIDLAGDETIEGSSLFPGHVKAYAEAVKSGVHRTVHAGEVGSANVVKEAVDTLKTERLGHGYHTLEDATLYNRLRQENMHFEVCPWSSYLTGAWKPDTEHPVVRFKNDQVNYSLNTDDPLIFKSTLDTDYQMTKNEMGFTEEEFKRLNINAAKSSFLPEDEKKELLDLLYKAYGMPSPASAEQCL
Put plainly: Adenosine deaminase assay (UV). It counts as in vitro ADME, Bovine. As to conditions: 62.5 μM. As to the method:
Bovine recombinant adenosine deaminase (ADA, EC:3.5.4.4) was purchased from Sigma (Sigma-Aldrich, product number 59722). The ADA suspension (containing >2 U/mL) was aliquoted into 55 μL portions and kept at −20 °C. Before use, a 55 μL sample was thawed and 1 mL of phosphate buffer (0.1 N, pH 7.4) was added. The suspension was filtered through a 0.2 μm filter to remove precipitates that could interfere with the absorbance measurements. The clear supernatant was used for the degradation experiments. The experiments were conducted in UV transparent cuvettes (Sigma-Aldrich, code: Z637092) using an Envision microplate reader (PerkinElmer). […] Scans of the absorption spectrum were taken between 220 and 350 nm with 2 nm resolution every 0.1 min over a period of 10 min to 12 h. One sample containing only ADA was also prepared, and this was subtracted to obtain the spectrum over time for substrates.

Data set [3] can be described thus: Plasma stability. The following applies: for half-life at 24 h, 20 µM: human, plasma. The class given is in vitro ADME. As to the method: […] After incubation, 100 μL of each sample was taken and 300 μL of 100% methanol was added and left on ice for 30 min. After 30 min, the mixture was centrifuged (14 000 rpm, 4 °C, 10 min), and the supernatant was transferred to new tubes and evaporated under SpeedVac. Then, the dried extract was reconstituted in 100 μL of 10% acetonitrile, then transferred to LC-MS vials, and 10 μL was injected into the UPLC-MS/MS system.

The nature of data set [4]: Plasma stability. As to conditions: mouse plasma. The class given is in vitro ADME. As to the method:
Plasma samples (10 mL of human, beagle dog, mouse, or rats from Sera laboratories, U.K.) were treated with and without 1 μM of EHNA, after which 20 μM concentration of each drug (3′dA and ProTides) was added and incubated for 2 h at 37 °C with 5% CO2. After incubation, 100 μL of each sample was taken and 300 μL of 100% methanol was added and left on ice for 30 min. After 30 min, the mixture was centrifuged (14 000 rpm, 4 °C, 10 min), and the supernatant was transferred to new tubes and evaporated under SpeedVac. Then, the dried extract was reconstituted in 100 μL of 10% acetonitrile, then transferred to LC-MS vials, and 10 μL was injected into the UPLC-MS/MS system.

As for `Nc1ncnc2c1ncn2[C@@H]1O[C@H](CO)C[C@H]1O` [3′-dA, 3′-Deoxyadenosine, reference compound], the CC50 was above 198 µM in the data set on Jurkat; 59.3 µM with K562 (K562, 72 h); above 198 µM with MIA PaCa-2; above 198 µM in the data set on NCI-H929. In addition, the MI% in the data set on Jurkat is listed as 20%; in the data set with MIA PaCa-2 it was 35%; in the data set with NCI-H929 it was 24%. In addition, the Emax with K562 (72 h, K562, maximum inhibitory effect over concentration range) was determined as 88%. The “effect on proportion of leukemic stem cells (LSCs)” value in data set [1] is “increased selectivity and potency against the putative leukemic stem cells”. In addition, the “time to complete metabolic deamination by ADA” value in data set [2] (bovine, pH 7.4) is listed as “up to 2 minutes”. Also, the “remaining after 24 h” value in the data set “Plasma stability [3]” (human plasma, with EHNA) came out at 42.1%. Further, the “time until completely metabolized” value in “Plasma stability [3]” (human plasma, without EHNA) came out at 4 h. Further, the half-life at 24 h, 20 µM in the data set “Plasma stability [3]” (with EHNA) was 4.2 h; in “Plasma stability [3]” (without EHNA), 1.03 h. Further, in “Plasma stability [4]”, the half-life at 20 μM is 0.417 h.
As to `C[C@H](NP(=O)(OC[C@@H]1C[C@@H](O)[C@H](n2cnc3c(N)ncnc32)O1)Oc1ccccc1)C(=O)OCc1ccccc1` (stereo partly drawn) [Compound 7a, (Rp)- and (Sp)-3′-Deoxyadenosine 5′-O-phenyl-(benzoxy-L-alaninyl)-phosphate], the CC50 in the data set with Jurkat stood at 1.44 µM; with K562 (K562, 72 h), 6.1 µM; in the data set on MIA PaCa-2, 6.85 µM; in the data set on NCI-H929, 6.07 µM. The “fold more active than 3′-dA” value in the data set with Jurkat (Jurkat cell line, from LC50) is “approximately 200 fold”. In addition, the MI% with Jurkat amounted to 100%; in the data set on MIA PaCa-2, 96%; with NCI-H929, 100%. The Emax in the data set on K562 (K562, 72 h) turned out to be 92%. Also, the “effect on proportion of leukemic stem cells (LSCs)” value in data set [1] was “significantly reducing the LSC population to a greater extent than the parent nucleoside at concentrations above 1 μM”. Further, the “UV absorbance spectra in absence and presence of ADA” value in data set [2] (ADA from calf, phosphate buffer pH 7.4, 25 °C, 12 h) is given as “the two lines are superimposed”. Further, the “shift of the maximum absorption after ADA addition (deamination)” value in data set [2] (up to 2 h) is on record as “no shift of the maximum absorption at 265 nm”. The results for the “concentration detected after 30 s of incubation” value in the data set “Plasma stability [3]” (human plasma) and in “Plasma stability [4]” were 10000 ng/mL and 0.5 ng/mL, respectively. For the same molecule, in “Plasma stability [3]” (human plasma, up to 4 h), the “change in plasma concentration” value is “no change in plasma concentration”.
For `CCOC(=O)CCc1ccccc1OP(=O)(N[C@@H](C)C(=O)OCc1ccccc1)OC[C@@H]1C[C@@H](O)[C@H](n2cnc3c(N)ncnc32)O1` (some centres unmarked) [Compound 7e], the CC50 in the data set with Jurkat was 4.75 µM; in the data set on K562 (K562, 72 h), 175 µM; with MIA PaCa-2 it was 12.1 µM; in the data set on NCI-H929 it was 7.57 µM. Moreover, the MI% with Jurkat is on record as 100%; in the data set with MIA PaCa-2, 101%; with NCI-H929, 100%. In addition, in the data set on K562 (K562, 72 h), the Emax came out at 61%.
